The text below walks through data of patent US20170303554A1, “METHOD OF SANITIZING EDIBLE SEEDS, PARTICULARLY MUCILAGE PRODUCING SEEDS” (AGRI-NEO INC., priority 2014, published 2017).

The test system of test [1] is Total count Aerobic bacteria. Nature of the test: Total aerobic count on seeds, grains and spices sprayed with sanitizing solutions (Example 1). The test is classed as cell-based. Conditions: for bactericidal effect, conclusion in words: 40 L per 1 tonne. How it is done:
(§1) Seeds were mechanically cleaned and spread in stainless steel containers. Each 100 grams seeds were sprayed with 4 ml total solutions descried above via conventional trigger vaporizer. This solution is equivalent to 40 L disinfecting solution total sprayed on 1-tonne seeds. Seeds, grains and spices were selected to represent all families and types of seeds, grains and spices. Another criterium was to select seeds and grains contaminated with a high count of total aerobic bacteria, yeast, mold, E. coli, Salmonella sp. and other pathogenic microorganisms.
(§2) Seeds, grains and spices treated were: • Whole dried pea, • Split pea dried, • Pea fiber, • Vanilla, • Chia, • Sprouted flax and chia, • Flax, • Hemp, and • Black pepper seeds

Test [2] relates to Y&M (yeast and mold). As to the kind of experiment: Yeast and mold (Y&M) count on sprayed seeds, grains and spices (Example 1). The format is cell-based. The conditions noted are these: 40 L/tonne; for Y&M, Av: average; for Y&M, n1: replicate n1; for Y&M, n2: replicate n2. How it is done:
as §1, §2

SMILES strings stand for the structures.

As for `CC(=O)OO` [Peracetic acid], the “bactericidal effect, conclusion in words” value in test [1] (black pepper), in test [1] (hemp), in test [1] (pea fiber), in test [1] (split pea), in test [1] (vanilla) and in test [1] (whole dried pea) was “strong bactericidal agent” in each case.

On to `CCO` [2- Alcohol - ethanol, ethanol], for which the “effect when combined with peracetic acid formulations (synergy), in words” value in test [1] (black pepper), in test [1] (hemp), in test [1] (pea fiber), in test [1] (split pea), in test [1] (vanilla) and in test [1] (whole dried pea) was “synergistic with peracetic acid” in each case. Besides, the “bactericidal effect, conclusion in words” value was “not a strong bactericidal agent” in test [1] (black pepper); “not a strong bactericidal agent” in test [1] (hemp); “not a strong bactericidal agent” in test [1] (pea fiber); “not a strong bactericidal agent” in test [1] (split pea); “bactericidal agent but not very strong” in test [1] (sprouted flax and chia); “not a strong bactericidal agent” in test [1] (vanilla). In addition, the “bactericidal effect, conclusion in words” value in test [1] (whole dried pea) is “not a strong bactericidal agent”. Moreover, the “Y&M, Av” value in test [2] (pea fiber), in test [2] (whole dried pea) and in test [2] (whole split pea) was “Y&M not detected” throughout. The “Y&M, n1” value is recorded as “n1, n2 not detected” in test [2] (pea fiber); “n1, n2 not detected” in test [2] (whole dried pea); “n1, n2 not detected” in test [2] (whole split pea). Further, the “Y&M, n2” value in test [2] (pea fiber) was “n1, n2 not detected”; in test [2] (whole dried pea) it was “n1, n2 not detected”; in test [2] (whole split pea), “n1, n2 not detected”.
